Results taken from US10329309B2, “3-(3H-imidazo[4,5-B]pyridin-2-yl)-1H-pyrazolo[4,3-B]pyridines and therapeutic uses thereof” (Samumed, LLC, priority 2015, dated 2019).

Experiments:
Format in all cases: cell-based
SW480 colon cancer cells = assay: Cell viability assay (CellTiter-Blue), four days; settings: Homo sapiens, 96 h, CellTiter-Blue cell viability
Description: Representative compounds were screened using the following assay procedure to assess the effect on cell viability as described below.
Each compound was dissolved in DMSO as a 10 mM stock and used to prepare compound source plates. Serial dilution (1:3, 8-point dose-response curves from 10 μM to 0.0045 μM) and compound transfer was performed using the ECHO 550 (Labcyte, Sunnyvale, Calif.) into 96-well clear bottom, black-walled plates (Corning-Costar).
Approximately 2×10^3 SW480 colon cancer cells were seeded into each well and allowed to incubate in the presence or absence of compound for four days at 37° C./5% CO2. Eight replicates of DMSO-treated cells served as controls and cells treated with compound were performed in duplicate.
After incubation, 20 μL of CellTiter-Blue (Promega) was added to each well allowed to incubate for approximately 3 hours. This reagent was a buffered solution which contains resazurin, metabolically active cells were able to reduce rezarurin (blue) into resorufin (pink) which was highly fluorescent. This measured fluorescence was used as a readout for cell viability.
After incubation, the plates were read at Ex 560 nm Em 590 nm (Cytation 3, BioTek). Dose-response curves were generated and EC50 concentration values were calculated using non-linear regression curve fit in the GraphPad Prism (San Diego, Calif.) or Dotmatics' Studies Software (Bishops Stortford, UK). For EC50 of >10 μM, the percent inhibition at 10 μM is provided.

IL-6 (THP-1 cells) = assay: Inhibition of IL-6 in LPS-stimulated THP-1 monocytes (HTRF); settings: Homo sapiens, LPS 500 ng/mL, IL-6 by HTRF
Description: Human monocyte cell line (THP-1 cells; Catalog # TIB-202, ATCC, Manassas, Va.) were cultured in Roswell Park Memorial Institute (RPMI) 1640 Medium (Catalog #21870-100, Buffalo, N.Y.) with 1% L-glutamine, 1% HEPES, 1% Sodium Pyruvate, 2% Sodium Bicarbonate supplemented with 100 units/mL penicillin, 50 μg/mL streptomycin, 2-mercaptoethanol (0.05 mM) [basal medium] and 10% fetal bovine serum (Catalog #16140089, Life Technologies, Carlsbad, Calif.) at 37° C. and 5% CO2.
THP-1 cells were cultured in basal media with 1% FBS for 24 hours before the start of the assay. Each compound was dissolved in DMSO as a 10 mM stock and used to prepare compound source plates. Serial dilution (1:3, 10-point dose-response curves starting from 10 μM) and compound transfer was performed using the ECHO 550 (Labcyte, Sunnyvale, Calif.) into 384-well white low volume assay plates (Greiner Bio-One) with appropriate DMSO backfill for a final DMSO concentration of 0.1%. THP-1 cells were plated at 5000 cells/well in the 384-well plates and incubated at 37° C. for 2 h. 500 ng/mL of LPS was added after 2 hours and cells were incubated for another 22 hours at 37° C. Plates were spun in a centrifuge for 1 minute at […] and a mixture of anti-IL6 XL665, and anti-IL6 Cryptate diluted in reconstitution buffer (Cisbio Inc.) was added to each well. Following incubation for 3 hrs at room temperature, Homogeneous Time-Resolved Fluorescence (HTRF) was measured using the Envision (Perkin Elmer) at 665 nm and […]. The ratio of fluorescence at 665 nm to 620 nm was used as a readout for IL6 quantification. All samples were processed in duplicate. Readings were normalized to DMSO treated cells and normalized activities were utilized for EC50 calculations using the dose-response log (inhibitor) vs. response -variable slope (four parameters) nonlinear regression feature available in GraphPad Prism 5.0 (or Dotmatics). For EC50 of >10 μM, the percent inhibition at 10 μM is provided.

[1] = test system: primary human fibroblasts derived from IPF patients (LL29 cells), α-smooth muscle actin (αSMA); assay: Inhibition of the fibrotic process: TGF-β1-treated primary human fibroblasts from IPF patients, αSMA staining; settings: Fibroblast, 96 h, LL29 fibroblasts from IPF patients, TGF-β1 20 ng/mL, 4 days, inhibition of fibrotic process
Source text: Representative compounds were screened using primary human fibroblasts (derived from IPF patients) treated with TGF-β1 to determine their ability to inhibit the fibrotic process.
Primary human fibroblasts derived from IPF patients (LL29 cells) [^1Xiaoqiu Liu, et. al., “Fibrotic Lung Fibroblasts Show Blunted Inhibition by cAMP Due to Deficient cAMP Response Element-Binding Protein Phosphorylation”, Journal of Pharmacology and Experimental Therapeutics (2005), 315(2), 678-687; ^2Watts, K. L., et. al., “RhoA signaling modulates cyclin D1 expression in human lung fibroblasts; implications for idiopathic pulmonary fibrosis”, Respiratory Research (2006), 7(1), 88] were obtained from American Type Culture Collection (ATCC) and expanded in F12 medium supplemented with 15% Fetal Bovine Serum and Penicillin/Streptomycin.
Each compound was dissolved in DMSO as a 10 mM stock and used to prepare compound source plates. Serial dilution (1:2, 11-point dose-response curves from 10 μM to 1.87 nM) and compound transfer was performed using the ECHO 550 (Labcyte, Sunnyvale, Calif.) into 384-well clear bottom assay plates (Greiner Bio-One) with appropriate DMSO backfill for a final DMSO concentration of 0.1%. LL29 cells are plated at 1,500 cells/well in 80 μL/well F12 medium supplemented with 1% Fetal Bovine Serum. One hour after addition of the cells, TGF-β1 (Peprotech; 20 ng/mL) was added to the plates to induce fibrosis (ref. 1 and 2 above). Wells treated with TGF-β1 and containing DMSO were used as controls. Cells were incubated at 37° C. and 5% CO2 for 4 days. Following incubation for 4 days, SYTOX green nucleic acid stain (Life Technologies [Thermo Fisher Scientific]) was added to the wells at a final concentration of 1 μM and incubated at room temperature for 30 min. Cells were then fixed using 4% formaldehyde (Electron Microscopy Sciences), washed 3 times with PBS followed by blocking and permeabilization using 3% Bovine Serum Albumin (BSA; Sigma) and 0.3% Triton X-100 (Sigma) in PBS. Cells were then stained with antibody specific to α-smooth muscle actin (αSMA; Abcam) (ref. 1 and 2 above) in 3% Bovine Serum Albumin (BSA; Sigma) and 0.3% Triton X-100 (Sigma) in PBS, and incubated overnight at 4° C. Cells were then washed 3 times with PBS, followed by incubation with Alexa Flor-647 conjugated secondary antibody (Life Technologies [Thermo Fisher Scientific]) and DAPI at room temperature for 1 hour. Cells were then washed 3 times with PBS and plates were sealed for imaging. αSMA staining was imaged by excitation at 630 nm and emission at 665 nm and quantified using the Compartmental Analysis program on the CellInsight CX5 (Thermo Scientific). Dead or apoptotic cells were excluded from analysis based on positive SYTOX green staining. % of total cells positive for αSMA were counted in each well and normalized to the average of 11 wells treated with TGF-β1 on the same plate using Dotmatics' Studies Software. The normalized averages (fold change over untreated) of 3 replicate wells for each compound concentration were used to create dose-responses curves and EC50 values were calculated using non-linear regression curve fit in the Dotmatics' Studies Software. For EC50 of >10 μM, the percent inhibition at 10 μM is provided.

[2] = test system: Wnt activity (Sp5-Luc reporter, SW480 colon carcinoma cells); assay: Screening assay for Wnt activity: Sp5-Luc reporter gene assay in SW480 cells; settings: Homo sapiens, overnight incubation, 10-point dose-response from 10 μM
Source text: The screening assay for Wnt activity is described as follows. Reporter cell lines can be generated by stably transducing cancer cell lines (e.g., colon cancer) or primary cells (e.g., IEC-6 intestinal cells) with a lentiviral construct that includes a Wnt-responsive promoter driving expression of the firefly luciferase gene.
SW480 colon carcinoma cells were transduced with a lentiviral vector expressing luciferase with a human Sp5 promoter consisting of a sequence of eight TCF/LEF binding sites. SW480 cells stably expressing the Sp5-Luc reporter gene and a hygromycin resistance gene were selected by treatment with 150 μg/mL of hygromycin for 7 days. These stably transduced SW480 cells were expanded in cell culture and used for all further screening activities. Each compound was dissolved in DMSO as a 10 mM stock and used to prepare compound source plates. Serial dilution (1:3, 10-point dose-response curves starting from 10 μM) and compound transfer was performed using the ECHO 550 (Labcyte, Sunnyvale, Calif.) into 384-well white solid bottom assay plates (Greiner Bio-One) with appropriate DMSO backfill for a final DMSO concentration of 0.1%. For Sp5-Luc reporter gene assays, the cells were plated at 4,000 cells/well in 384-well plates with medium containing 1% fetal bovine serum and incubated overnight at 37° C. and 5% CO2. Following incubation, 20 μl of BrightGlo luminescence reagent (Promega) was added to each well of the 384-well assay plates. The plates were placed on an orbital shaker for 2 min and then luminescence was quantified using the Envision (Perkin Elmer) plate reader. Readings were normalized to DMSO only treated cells, and normalized activities were utilized for EC50 calculations using the dose-response log (inhibitor) vs. response -variable slope (four parameters) nonlinear regression feature available in GraphPad Prism 5.0 (or Dotmatics). For EC50 of >10 μM, the percent inhibition at 10 μM is provided.

| SMILES | EC50 (SW480 colon cancer cells) [nM] | EC50 (IL-6 (THP-1 cells)) [nM] | EC50 [2] [nM] | EC50 [1] [nM] |
| --- | --- | --- | --- | --- |
| c1ccc(CNCc2cncc(-c3ccc4[nH]nc(-c5nc6c(-c7cccnc7)ccnc6[nH]5)c4n3)c2)cc1 [Compound 108, N-Benzyl-1-(5-(3-(7-(pyridin-3-yl)-3H-imidazo[4,5-b]pyridin-2-yl)-1H-pyrazolo[4,3-b]pyridin-5-yl)pyridin-3-yl)methanamine] | 3320 | 131 | 4860 | 8890 |
| c1ccc(-c2ccc3[nH]nc(-c4nc5cccnc5[nH]4)c3n2)nc1 [Compound 280, 3-(3H-Imidazo[4,5-b]pyridin-2-yl)-5-(pyridin-2-yl)-1H-pyrazolo[4,3-b]pyridine] | 2290 | 115 | 687 | 3880 |
| c1ccc(CNCc2cncc(-c3ccc4[nH]nc(-c5nc6c(-c7ccsc7)ccnc6[nH]5)c4n3)c2)cc1 [Compound 304, N-Benzyl-1-(5-(3-(7-(thiophen-3-yl)-3H-imidazo[4,5-b]pyridin-2-yl)-1H-pyrazolo[4,3-b]pyridin-5-yl)pyridin-3-yl)methanamine] | 1400 | 4260 | 1970 | 1340 |
| c1cc(-c2ccoc2)c2nc(-c3n[nH]c4ccc(-c5cncc(CNCC6CCCC6)c5)nc34)[nH]c2n1 [Compound 333, 1-Cyclopentyl-N-((5-(3-(7-(furan-3-yl)-3H-imidazo[4,5-b]pyridin-2-yl)-1H-pyrazolo[4,3-b]pyridin-5-yl)pyridin-3-yl)methyl)methanamine] | 2590 | 2620 | 2720 | 1420 |
| c1csc(-c2ccnc3[nH]c(-c4n[nH]c5ccc(-c6ccncc6)nc45)nc23)c1 [Compound 354, 5-(Pyridin-4-yl)-3-(7-(thiophen-2-yl)-3H-imidazo[4,5-b]pyridin-2-yl)-1H-pyrazolo[4,3-b]pyridine] | 405 | 1380 | 731 | 387 |
| CN(C)CCNc1cc(F)cc(-c2ccnc3[nH]c(-c4n[nH]c5ccc(-c6cncc(CNCC7CCCC7)c6)nc45)nc23)c1 [Compound 473, N^1-(3-(2-(5-(5-(((Cyclopentylmethyl)amino)methyl)pyridin-3-yl)-1H-pyrazolo[4,3-b]pyridin-3-yl)-3H-imidazo[4,5-b]pyridin-7-yl)-5-fluorophenyl)-N^2,N^2-dimethylethane-1,2-diamin] | 2820 | 2620 | 3640 | 1530 |

Second part, led by results:

| EC50 (SW480 colon cancer cells) [nM] | EC50 (IL-6 (THP-1 cells)) [nM] | EC50 [2] [nM] | SMILES | EC50 [1] [nM] |
| --- | --- | --- | --- | --- |
| 2640 | 5760 | 1120 | Fc1ccccc1-c1ccnc2[nH]c(-c3n[nH]c4ccc(-c5cncc(CNCC6CCCC6)c5)nc34)nc12 [Compound 81, 1-Cyclopentyl-N-((5-(3-(7-(2-fluorophenyl)-3H-imidazo[4,5-b]pyridin-2-yl)-1H-pyrazolo[4,3-b]pyridin-5-yl)pyridin-3-yl)methyl)methanamine] | 1600 |
| 832 | 5420 | 4140 | FC1(F)CCN(Cc2cncc(-c3ccc4[nH]nc(-c5nc6c(N7CCCCC7)ccnc6[nH]5)c4n3)c2)C1 [Compound 194, 5-(5-((3,3-Difluoropyrrolidin-1-yl)methyl)pyridin-3-yl)-3-(7-(piperidin-1-yl)-3H-imidazo[4,5-b]pyridin-2-yl)-1H-pyrazolo[4,3-b]pyridine] | 1190 |
| 3560 | 9180 | 3290 | Oc1cncc(-c2ccc3[nH]nc(-c4nc5c(N6CCCCC6)ccnc5[nH]4)c3n2)c1 [Compound 613, 5-(3-(7-(Piperidin-1-yl)-3H-imidazo[4,5-b]pyridin-2-yl)-1H-pyrazolo[4,3-b]pyridin-5-yl)pyridin-3-ol] | 2440 |
| 1160 | 1500 | 1810 | CN1CCN(c2ccnc3[nH]c(-c4n[nH]c5ccc(-c6cncc(OCc7ccccc7)c6)nc45)nc23)CC1 [Compound 646, 5-(5-(Benzyloxy)pyridin-3-yl)-3-(7-(4-methylpiperazin-1-yl)-3H-imidazo [4,5-b]pyridin-2-yl)-1H-pyrazolo[4,3-b]pyridine] | 1710 |
